The values that follow come from US10858362B2, “Imidazopyrazinones as PDE1 inhibitors” (H. Lundbeck A/S, priority 2015, dated 2020).

Common to all, as to type: biochemical
Experiment [1] has as its target PDE1B (Homo sapiens (Human), UniProt Q01064). Briefly: PDE1 inhibition assay, PDE1B. The settings on record: for IC50: 15 nM tritium labelled cAMP. Here is the method:
(§1) Reactions were initiated by addition of the cyclic nucleotide substrate, and reactions were allowed to proceed for 1 h at room temperature before being terminated through mixing with 20 μL (0.2 mg) yttrium silicate SPA beads (PerkinElmer). The beads were allowed to settle for 1 h in the dark before the plates were counted in a Wallac 1450 Microbeta counter.

The target of experiment [2] is PDE1A (Homo sapiens (Human), UniProt P54750). Briefly: PDE1 inhibition assay, PDE1A. Conditions: for IC50: 15 nM tritium labelled cAMP; for inhibition at 10 µM: read-out: PDE1A, % inhibition (at 10 μM). The protocol: Reactions were initiated by addition of the cyclic nucleotide substrate, and reactions were allowed to proceed for 1 h at room temperature before being terminated through mixing with 20 μL (0.2 mg) yttrium silicate SPA beads (PerkinElmer).

Experiment [3] addresses PDE1C (Homo sapiens (Human), UniProt Q14123). Briefly: PDE1 inhibition assay, PDE1C. Conditions: 15 nM tritium labelled cAMP. The protocol:
as §1

The target of experiment [4] is PDE9 (Homo sapiens (Human), UniProt O76083). Briefly: PDE9 inhibition assay. A digest of the protocol:
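Human PDE9 in 50 mM HEPES pH 7.6, 10 mM MgCl2, 0.02% Tween20, enzyme set to convert 20-25% of 10 nM ^3H-cAMP substrate; inhibitors at varying amounts. 1 hr incubation, stopped with yttrium silicate SPA beads, settled 1 hr in dark, then scintillation counted.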

Structures are written as SMILES.

PDE1A, sequence (P54750 whole entry): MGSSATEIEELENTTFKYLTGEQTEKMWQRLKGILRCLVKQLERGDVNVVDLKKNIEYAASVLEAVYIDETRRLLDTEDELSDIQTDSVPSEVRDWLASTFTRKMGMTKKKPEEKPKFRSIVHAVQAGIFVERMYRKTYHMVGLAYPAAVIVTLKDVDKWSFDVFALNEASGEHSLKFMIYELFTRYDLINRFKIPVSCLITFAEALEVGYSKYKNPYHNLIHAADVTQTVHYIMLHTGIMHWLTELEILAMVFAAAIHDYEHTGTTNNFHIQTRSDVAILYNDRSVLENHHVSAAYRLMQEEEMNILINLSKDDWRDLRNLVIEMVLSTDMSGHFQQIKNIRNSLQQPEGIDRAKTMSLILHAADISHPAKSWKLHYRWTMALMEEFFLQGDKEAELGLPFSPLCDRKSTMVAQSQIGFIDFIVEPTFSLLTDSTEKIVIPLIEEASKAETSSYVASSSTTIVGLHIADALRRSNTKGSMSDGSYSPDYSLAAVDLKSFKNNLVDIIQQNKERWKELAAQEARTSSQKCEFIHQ
PDE9, sequence (O76083 whole entry): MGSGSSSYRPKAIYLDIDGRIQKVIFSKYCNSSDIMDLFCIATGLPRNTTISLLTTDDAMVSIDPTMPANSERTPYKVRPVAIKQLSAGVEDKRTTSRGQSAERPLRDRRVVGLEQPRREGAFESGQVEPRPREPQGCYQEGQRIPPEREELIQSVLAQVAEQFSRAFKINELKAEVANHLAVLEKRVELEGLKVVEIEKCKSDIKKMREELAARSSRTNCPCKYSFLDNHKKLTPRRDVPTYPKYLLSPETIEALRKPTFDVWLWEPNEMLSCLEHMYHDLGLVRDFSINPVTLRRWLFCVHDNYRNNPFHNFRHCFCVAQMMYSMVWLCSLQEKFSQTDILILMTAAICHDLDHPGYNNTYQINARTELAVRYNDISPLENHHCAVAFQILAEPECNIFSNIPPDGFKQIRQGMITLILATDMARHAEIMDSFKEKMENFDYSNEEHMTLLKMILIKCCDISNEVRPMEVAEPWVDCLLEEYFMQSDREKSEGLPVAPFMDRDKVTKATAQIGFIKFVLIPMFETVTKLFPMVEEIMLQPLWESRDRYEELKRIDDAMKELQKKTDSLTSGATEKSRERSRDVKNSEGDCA
PDE1B, sequence (Q01064 whole entry): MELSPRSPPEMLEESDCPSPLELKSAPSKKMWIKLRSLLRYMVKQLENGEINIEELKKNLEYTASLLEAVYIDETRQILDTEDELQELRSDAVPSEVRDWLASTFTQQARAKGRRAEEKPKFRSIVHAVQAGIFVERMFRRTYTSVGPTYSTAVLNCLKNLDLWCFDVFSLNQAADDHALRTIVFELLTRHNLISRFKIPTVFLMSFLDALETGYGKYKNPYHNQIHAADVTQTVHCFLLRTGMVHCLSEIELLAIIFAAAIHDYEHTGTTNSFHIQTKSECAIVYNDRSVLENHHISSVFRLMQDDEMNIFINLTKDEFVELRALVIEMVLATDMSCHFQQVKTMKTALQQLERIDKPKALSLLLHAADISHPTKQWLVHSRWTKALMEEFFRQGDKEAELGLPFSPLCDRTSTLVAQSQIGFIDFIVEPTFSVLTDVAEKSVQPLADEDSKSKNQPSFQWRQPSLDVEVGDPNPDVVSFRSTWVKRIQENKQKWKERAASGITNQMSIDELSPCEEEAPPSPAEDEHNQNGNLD
PDE1C, sequence (Q14123 whole entry): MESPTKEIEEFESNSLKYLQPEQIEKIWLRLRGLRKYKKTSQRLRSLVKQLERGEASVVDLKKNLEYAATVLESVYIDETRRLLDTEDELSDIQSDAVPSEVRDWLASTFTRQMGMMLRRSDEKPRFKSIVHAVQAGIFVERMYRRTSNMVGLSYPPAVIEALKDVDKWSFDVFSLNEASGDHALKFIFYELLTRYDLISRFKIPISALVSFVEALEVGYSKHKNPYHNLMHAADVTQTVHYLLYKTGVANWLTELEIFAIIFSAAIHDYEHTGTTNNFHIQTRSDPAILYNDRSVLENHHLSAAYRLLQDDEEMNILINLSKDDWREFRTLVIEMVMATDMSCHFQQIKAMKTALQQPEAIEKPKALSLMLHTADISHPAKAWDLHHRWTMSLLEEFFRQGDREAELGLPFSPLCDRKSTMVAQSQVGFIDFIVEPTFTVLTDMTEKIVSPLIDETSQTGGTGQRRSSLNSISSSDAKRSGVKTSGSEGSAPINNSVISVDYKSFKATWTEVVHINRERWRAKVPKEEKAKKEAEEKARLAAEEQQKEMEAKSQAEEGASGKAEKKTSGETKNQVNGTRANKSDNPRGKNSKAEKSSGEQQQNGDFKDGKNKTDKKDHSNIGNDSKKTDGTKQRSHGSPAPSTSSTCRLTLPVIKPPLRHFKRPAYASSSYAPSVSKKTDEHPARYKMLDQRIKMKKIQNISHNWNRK

As usually defined, the IC50 is the midpoint of a concentration-inhibition curve. A word on the inhibition: it is the change of the read-out against control, counted positive when it falls. Regarding `COc1ccc(Cn2c(C)cn3c([C@H](C)c4ccccc4)ncc3c2=O)cc1` [Example 72, (R)-7-(4-methoxybenzyl)-6-methyl-3-(1-phenylethyl)imidazo[1,5-a]pyrazin-8(7H)-one], the half-inhibitory concentration (IC50) was determined as 0.012 µM in experiment [1], 0.09 µM in experiment [2] and 0.043 µM in experiment [3]. Moreover, the inhibition at 10 µM in experiment [4] came to 9%.
`COc1ccc(Cn2c(C)cn3c(C4CCc5ccc(Cl)cc54)ncc3c2=O)cc1` (stereo not shown) [Example 74, 3-(6-chloro-2,3-dihydro-1H-inden-1-yl)-7-(4-methoxybenzyl)-6-methylimidazo[1,5-a]pyrazin-8(7H)-one]: the IC50 in experiment [1] worked out at 0.002 µM; in experiment [2] it was 0.005 µM; in experiment [3] it was 0.003 µM. Besides, the inhibition at 10 µM in experiment [4] is -19%.
Consider `COc1ccc(Cn2c(C)cn3c(C4(C)CNC(=O)C4)ncc3c2=O)cc1` (stereo not shown) [Example 75, 7-(4-methoxybenzyl)-6-methyl-3-(3-methyl-5-oxopyrrolidin-3-yl)imidazo[1,5-a]pyrazin-8(7H)-one], for which the IC50 came out at 0.297 µM in experiment [1], 0.236 µM in experiment [2] and 0.36 µM in experiment [3]. Further, the inhibition at 10 µM in experiment [4] is 8%.
On to `COCC(C)(C)c1ncc2c(=O)n(Cc3ccc(OC)cc3)c(C)cn12` [Example 76, 3-(1-methoxy-2-methylpropan-2-yl)-7-(4-methoxybenzyl)-6-methylimidazo[1,5-a]pyrazin-8(7H)-one], for which the IC50 came out at 0.044 µM in experiment [1], 0.122 µM in experiment [2] and 0.126 µM in experiment [3]. Besides, the inhibition at 10 µM in experiment [4] is -14%.
`Cc1nc(Cn2c(C)cn3c(C4CCOCC4)ncc3c2=O)cs1` [Example 78, 6-methyl-7-((2-methylthiazol-4-yl)methyl)-3-(tetrahydro-2H-pyran-4-yl)imidazo[1,5-a]pyrazin-8(7H)-one]: the IC50 in experiment [1] is 0.641 µM; in experiment [2] it was 1.69 µM; in experiment [3] it was 0.251 µM. Besides, the inhibition at 10 µM in experiment [4] came out at 6%.
For `Cc1cn2c(C3CCOCC3)ncc2c(=O)n1Cc1ccsc1` [Example 79, 6-methyl-3-(tetrahydro-2H-pyran-4-yl)-7-(thiophen-3-ylmethyl)imidazo[1,5-a]pyrazin-8(7H)-one] the same measures were 0.112 µM, 0.228 µM, 0.015 µM and 14%.
`Cc1cn2c(C3CCOCC3)ncc2c(=O)n1Cc1cscn1` [Example 80, 6-methyl-3-(tetrahydro-2H-pyran-4-yl)-7-(thiazol-4-ylmethyl)imidazo[1,5-a]pyrazin-8(7H)-one]: the values for the half-inhibitory concentration (IC50) in experiment [1] and in experiment [3] were 1.31 µM and 0.496 µM, respectively. Further, the inhibition at 10 µM in experiment [2] amounted to 72%; in experiment [4] it was 18%.
As for `Cc1noc(C)c1Cn1c(C)cn2c(C3CCOCC3)ncc2c1=O` [Example 81, 7-((3,5-dimethylisoxazol-4-yl)methyl)-6-methyl-3-(tetrahydro-2H-pyran-4-yl)imidazo[1,5-a]pyrazin-8(7H)-one], the inhibition at 10 µM stood at 36% in experiment [1] (read-out: PDE1B, % inhibition (at 10 μM)); 27% in experiment [2]; 36% in experiment [4]. In experiment [3], this compound had a concentration for half-maximal inhibition (IC50) of 2.31 µM.
Take `Cc1cc(Cn2c(C)cn3c(C4CCOCC4)ncc3c2=O)no1` [Example 82, 6-methyl-7-((5-methylisoxazol-3-yl)methyl)-3-(tetrahydro-2H-pyran-4-yl)imidazo[1,5-a]pyrazin-8(7H)-one]: the IC50 in experiment [1] worked out at 1.5 µM; in experiment [3], 1.03 µM. The inhibition at 10 µM is 67% in experiment [2] and 7% in experiment [4].
`Cc1cc(Cn2c(C)cn3c(C4CCOCC4)ncc3c2=O)on1` [Example 83, 6-methyl-7-((3-methylisoxazol-5-yl)methyl)-3-(tetrahydro-2H-pyran-4-yl)imidazo[1,5-a]pyrazin-8(7H)-one]: the concentration for half-maximal inhibition (IC50) in experiment [1] was found to be 2.29 µM; in experiment [2] it was 4.44 µM; in experiment [3] it was 1.61 µM. Further, in experiment [4], the inhibition at 10 µM was -4%.
For `COc1ccc(Cn2c(C)cn3c(C4CC(C)OC(C)C4)ncc3c2=O)cc1` (stereo not shown) [Example 84, 3-(2,6-dimethyltetrahydro-2H-pyran-4-yl)-7-(4-methoxybenzyl)-6-methylimidazo[1,5-a]pyrazin-8(7H)-one] the same measures were 0.103 µM, 0.627 µM, 0.337 µM and -5%.
Consider `CCCc1ncc2c(=O)n(CC3CCCCC3)c(C)cn12` [Example 85, 7-(cyclohexylmethyl)-6-methyl-3-propylimidazo[1,5-a]pyrazin-8(7H)-one], for which the values for the IC50 in experiment [1], in experiment [2] and in experiment [3] were 0.032 µM, 0.12 µM and 0.032 µM, respectively. In experiment [4], the inhibition at 10 µM was determined as 7%.
Turning to `COc1ccc(Cn2c(C)cn3c(C(C)(C)O)ncc3c2=O)cc1` [Example 86, 3-(2-hydroxypropan-2-yl)-7-(4-methoxybenzyl)-6-methylimidazo[1,5-a]pyrazin-8(7H)-one], the figures for the IC50 in experiment [1], in experiment [2] and in experiment [3] were 0.118 µM, 0.193 µM and 0.214 µM, respectively. For the same compound, in experiment [4], the inhibition at 10 µM was -11%.
For the compound `COc1ccc(Cn2c(C)cn3c(C4CCNC(=O)CC4)ncc3c2=O)cc1` (stereo not shown) [Example 88, 7-(4-methoxybenzyl)-6-methyl-3-(7-oxoazepan-4-yl)imidazo[1,5-a]pyrazin-8(7H)-one], the 50% inhibitory concentration (IC50) in experiment [1] amounted to 0.308 µM; in experiment [2], 0.484 µM; in experiment [3], 0.548 µM. Moreover, the inhibition at 10 µM in experiment [4] is -32%.
On to `COc1ccc(Cn2c(C)cn3c(C4COC(C)C4)ncc3c2=O)cc1` (stereo not shown) [Example 89, 7-(4-methoxybenzyl)-6-methyl-3-(5-methyltetrahydrofuran-3-yl)imidazo[1,5-a]pyrazin-8(7H)-one], for which the IC50 in experiment [1] turned out to be 0.128 µM; in experiment [3] it was 0.303 µM. Moreover, the results for the inhibition at 10 µM in experiment [2] and in experiment [4] were 65% and 1%, respectively.
Consider `COc1ccc(Cn2c(C)cn3c(C(C)c4nc(C)cs4)ncc3c2=O)cc1` (stereo not shown) [Example 90, 7-(4-methoxybenzyl)-6-methyl-3-(1-(4-methylthiazol-2-yl)ethyl)imidazo[1,5-a]pyrazin-8(7H)-one], for which the 50% inhibitory concentration (IC50) in experiment [1] was 0.015 µM; in experiment [2], 0.034 µM; in experiment [3], 0.023 µM. Also, the inhibition at 10 µM in experiment [4] turned out to be 10%.
With `COc1ccc(Cn2c(C)cn3c(C4(C)CCN(S(N)(=O)=O)C4)ncc3c2=O)cc1` (stereo not shown) [Example 91, 3-(7-(4-methoxybenzyl)-6-methyl-8-oxo-7,8-dihydroimidazo[1,5-a]pyrazin-3-yl)-3-methylpyrrolidine-1-sulfonamide], the figures for the half-maximal inhibitory concentration (IC50) in experiment [1], in experiment [2] and in experiment [3] were 0.185 µM, 0.181 µM and 0.417 µM, respectively. For the same compound, in experiment [4], the inhibition at 10 µM is 20%.
Taken in the same sequence, the figures for `COc1ccc(Cn2c(CC3CCCC3)cn3c(C4CCOCC4)ncc3c2=O)cc1` [Example 92, 6-(cyclopentylmethyl)-7-(4-methoxybenzyl)-3-(tetrahydro-2H-pyran-4-yl)imidazo[1,5-a]pyrazin-8(7H)-one] were 0.011 µM, 0.071 µM, 0.079 µM and 57%.
Consider `COc1ccc(Cn2c(C)cn3c(N4CCOCC4)ncc3c2=O)cc1` [Example 93, 3-(morpholino)-7-(4-methoxybenzyl)-6-methylimidazo[1,5-a]pyrazin-8(7H)-one], for which the half-inhibitory concentration (IC50) in experiment [1] turned out to be 0.052 µM; in experiment [2] it was 0.096 µM; in experiment [3] it was 0.099 µM. The inhibition at 10 µM in experiment [4] came out at 23%.
Take `COc1ccc(Cn2c(C)cn3c(N4CCOC[C@H]4C)ncc3c2=O)cc1` [Example 95, (R)-7-(4-methoxybenzyl)-6-methyl-3-(3-methylmorpholino)imidazo[1,5-a]pyrazin-8(7H)-one]: the half-maximal inhibitory concentration (IC50) in experiment [1] stood at 0.162 µM; in experiment [2] it was 0.258 µM; in experiment [3], 0.218 µM. For the same compound, the inhibition at 10 µM in experiment [4] is 9%.
Taken in the same sequence, the figures for `COc1ccc(Cn2c(C)cn3c(N4CCCOCC4)ncc3c2=O)cc1` [Example 97, 7-(4-methoxybenzyl)-6-methyl-3-(1,4-oxazepan-4-yl)imidazo[1,5-a]pyrazin-8(7H)-one] were 0.082 µM, 0.202 µM, 0.128 µM and -8%.
For the compound `COc1ccc(Cn2c(C)cn3c(N4CCOC(C)(C)C4)ncc3c2=O)cc1` [Example 98, 3-(2,2-dimethylmorpholino)-7-(4-methoxybenzyl)-6-methylimidazo[1,5-a]pyrazin-8(7H)-one], the IC50 in experiment [1] amounted to 0.102 µM; in experiment [2], 0.287 µM; in experiment [3], 0.135 µM. For the same compound, the inhibition at 10 µM in experiment [4] came out at 4%.
